# In US6552022B1, “Benzamide derivatives and their use as ApoB-100 secretion inhibitors” (SmithKline Beecham Corporation, priority 1998, dated 2003):
row,SMILES,melting point
1,"O=C(Nc1ccc(N2CCN(Cc3cc[nH]n3)CC2)cc1)c1ccccc1-c1ccc(C(F)(F)F)cc1 [Example 71, 4′-Trifluoromethyl-biphenyl-2-carboxylic acid {4-[4-(1H-pyrazole-3-ylmethyl)-piperazine-1-yl]-phenyl}-amide]",194 to 196 °C
2,"O=C(Nc1ccc(N2CCN(Cc3cccc(-c4noc(C(F)(F)F)n4)c3)CC2)cc1)c1ccccc1-c1ccc(C(F)(F)F)cc1 [Example 75, 4′-Trifluoromethyl-biphenyl-2-carboxylic acid (4-{4-[3-(5-trifluoromethyl-[1,2,4]oxadiazol-3-yl)-benzyl]-piperazin-1-yl}-phenyl)-amide]",188 to 190 °C
3,"CCOCCN1CCN(c2ccc(NC(=O)c3ccccc3-c3ccc(C(F)(F)F)cc3)cc2)CC1 [Example 43, 4′-Trifluoromethyl-biphenyl-2-carboxylic acid [4-(4-(2-ethoxy-ethyl)-piperazin-1-yl]-phenyl]-amide]",176 to 178 °C
4,"COc1ccc(-c2ccc(C(C)C)cc2)c(C(=O)Nc2ccc(N3CCN(CC(N)=O)CC3)cc2)c1 [Example 38, 4′-Isopropyl-4-methoxy-biphenyl-2-carboxylic Acid [4-(4-carbamoylmethyl-piperazin-1-yl)-phenyl]-amide]",207 to 209 °C
5,"CCCN1CCN(c2ccc(NC(=O)c3ccccc3-c3ccc(C(F)(F)F)cc3)cc2)CC1 [Example 65, 4′-Trifluoromethyl-biphenyl-2-carboxylic acid [4-(4-propyl-piperazin-1-yl)-phenyl]-amide]",207 to 209 °C
6,"O=C(Nc1ccc(N2CCN(Cc3nccs3)CC2)cc1)c1ccccc1-c1ccc(C(F)(F)F)cc1 (hydrate or solvate) [Example 59, 4′-Trifluoromethyl-biphenyl-2-carboxylic acid [4-(4-thiazol-2-ylmethyl-piperazin-1-yl)-phenyl]-amide]",187 to 189 °C
7,"Cc1cccc(C(=O)Nc2ccc(N3CCN(CC(N)=O)CC3)cc2)c1-c1ccc(C(F)(F)F)cc1 [Example 40, 6-Methyl-4′-trifluoromethyl-biphenyl-2-carboxylic acid [4-(4-carbamoylmethyl-piperazin-1-yl)-phenyl]-amide]",196 to 198 °C
8,"COc1cccc(C(=O)Nc2ccc(N3CCN(Cc4cccc(C#N)c4)CC3)cc2)c1OCc1ccc(C(F)(F)F)cc1 [Example 28, N-[4-[4-(3-Cyano-benzyl)-piperazin-1-yl]-phenyl]-3-methoxy-2-(4-trifluoromethyl-benzyloxy)-benzamide]",118 to 119.5 °C
9,"COc1cccc(C(=O)Nc2ccc(N3CCN(Cc4cccc(C#N)c4)CC3)cc2)c1OCCc1ccccc1 [Example 30, N-[4-[4-(3-Cyano-benzyl)-piperazin-1-yl]-phenyl]-3-methoxy-2-phenethyloxy-benzamide]",140 to 142 °C
10,Cc1ccc(-c2ccccc2C(=O)Nc2ccc(N3CCN(Cc4cccc(C#N)c4)CC3)cc2)c(C)c1,72 to 76 °C
11,"COc1ccc(C(=O)Nc2ccc(N3CCN(Cc4cccc(C#N)c4)CC3)cc2)c(-c2ccccc2)c1 [Example 12, 5-Methoxy-biphenyl-2-carboxylic acid [4-[4-(3-cyano-benzyl)-piperazin-1-yl]-phenyl]-amide]",159 to 161 °C
12,"COc1cccc(C(=O)Nc2ccc(N3CCN(Cc4cccc(C#N)c4)CC3)cc2)c1OCc1ccc(F)cc1 [Example 29, N-[4-[4-(3-Cyano-benzyl)-piperazin-1-yl]-phenyl]-2-(4-fluoro-benzyloxy)-3-methoxy-benzamide]",118 to 120 °C
13,"CS(=O)(=O)N1CCN(c2ccc(NC(=O)c3ccccc3-c3ccc(C(F)(F)F)cc3)cc2)CC1 [Example 83, 4′-Trifluoromethyl-biphenyl-2-carboxylic Acid [4-(4-methanesulfonyl-piperazin-1-yl)-phenyl]-amide]",254 to 256 °C
14,"COc1cccc(C(=O)Nc2ccc(N3CCN(Cc4ccc[nH]4)CC3)cc2)c1-c1ccc(C(C)C)cc1 [Example 68, 4′-Isopropyl-6-methoxy-biphenyl-2-carboxylic acid [4-(4-(1H-pyrrol-2-ylmethyl)-piperazin-1-yl)-phenyl]-amide]",195 to 197 °C
15,"O=C(Nc1ccc(N2CCN(Cc3cnccn3)CC2)cc1)c1ccccc1-c1ccc(C(F)(F)F)cc1 [Example 58, 4′-Trifluoromethyl-biphenyl-2-carboxylic acid [4-(4-pyrazin-2-ylmethyl-piperazin-1-yl)-phenyl]-amide]",183 to 185 °C
16,"N#Cc1cccc(CN2CCN(c3ccc(NC(=O)c4ccccc4-n4cccc4)cc3)CC2)c1 [Example 85, N-{4-[4-(3-Cyano-benzyl)-piperazin-1-yl]-phenyl}-2-pyrrol-1-yl-benzamide]",174 °C

# The next lines start with the values.
row,melting point,SMILES
1,124 to 126 °C,"N#Cc1cccc(CN2CCC(c3ccc(NC(=O)c4ccccc4-c4ccc(C(F)(F)F)cc4)cc3)CC2)c1 [Example 84, 4′-Trifluoromethyl-biphenyl-2-carboxylic Acid (4-[1-(3-cyano-benzyl)-piperidin-4-yl]-phenyl]-amide]"
2,200 to 202 °C,"N#Cc1cccc(CN2CCN(c3ccc(NC(=O)c4ccccc4-c4ccc(F)cc4)cc3)CC2)c1 [Example 23, 4′-Fluoro-biphenyl-2-carboxylic acid [4-[4-(3-cyano-benzyl)-piperazin-1-yl]-phenyl]-amide]"
3,164 to 165 °C,"N#Cc1cccc(CN2CCN(c3ccc(NC(=O)c4ccc(Cl)cc4-c4ccc(C(F)(F)F)cc4)cc3)CC2)c1 [Example 10, 5-Chloro-4′-trifluoromethyl-biphenyl-2-carboxylic acid [4-[4-(3-cyano-benzyl)-piperazin-1-yl]-phenyl]-amide]"
4,133 to 135 °C,CC(C)c1ccc(-c2ccccc2C(=O)Nc2ccc(N3CCN(Cc4cccc(C#N)c4)CC3)cc2)cc1
5,169 to 171 °C,"N#Cc1cccc(CN2CCN(c3ccc(NC(=O)c4ccccc4-c4ccccc4)cc3)CC2)c1 (hydrate or solvate) [Example 11, Biphenyl-2-carboxylic acid (4-[4-(3-cyano-benzyl)-piperazin-1-yl]-phenyl]-amide]"
6,223 °C,"N#Cc1cccc(S(=O)(=O)N2CCN(c3ccc(NC(=O)c4ccccc4-c4ccc(C(F)(F)F)cc4)cc3)CC2)c1 [Example 82, 4′-Trifluoromethyl-biphenyl-2-carboxylic Acid [4-[4-(3-cyano-benzenesulfonyl)-piperazin-1-yl]-phenyl]-amide]"
7,170 to 172 °C,"N#Cc1cccc(CN2CCN(c3cccc(NC(=O)c4ccccc4-c4ccc(C(F)(F)F)cc4)c3)CC2)c1 [Example 36, 4′-Trifluoromethyl-biphenyl-2-carboxylic Acid [3-[4-(3-cyano-benzyl)-piperazin-1-yl]-phenyl]-amide]"
8,117 to 121 °C,N#Cc1cccc(CN2CCN(c3ccc(NC(=O)c4ccccc4-c4cccc(C(F)(F)F)c4)cc3)CC2)c1
9,181 to 183 °C,"O=C(Nc1ccc(N2CCN(Cc3cccs3)CC2)cc1)c1ccccc1-c1ccc(C(F)(F)F)cc1 [Example 70, 4′-Trifluoromethyl-biphenyl-2-carboxylic acid [4-(4-thiophen-2-ylmethyl-piperazin-1-yl)-phenyl]-amide]"
10,120 to 124 °C,Cc1ccc(-c2ccc(C(F)(F)F)cc2)c(C(=O)Nc2ccc(N3CCN(Cc4cccc(C#N)c4)CC3)cc2)c1
